Laboratory results reported in US7704986B2, “Vitamin D3 analogues for the prevention and treatment of bone disorders” (K.U. Leuven Research and Development, priority 2004, dated 2010).
Several values for one entry are separate records, joined by “and”; a condition that tells them apart may be missing. Identical values can stand only once.

Columns and labels:
[1] = target: T1, human vitamin D binding protein (hDBP) (Homo sapiens, UniProt P02774); assay: Affinity for human vitamin D binding protein; details: hDBP 0.18 μM, 4° C. 3 hours; 1,25(OH)2D3 = 100
T1 sequence (P02774 17-474): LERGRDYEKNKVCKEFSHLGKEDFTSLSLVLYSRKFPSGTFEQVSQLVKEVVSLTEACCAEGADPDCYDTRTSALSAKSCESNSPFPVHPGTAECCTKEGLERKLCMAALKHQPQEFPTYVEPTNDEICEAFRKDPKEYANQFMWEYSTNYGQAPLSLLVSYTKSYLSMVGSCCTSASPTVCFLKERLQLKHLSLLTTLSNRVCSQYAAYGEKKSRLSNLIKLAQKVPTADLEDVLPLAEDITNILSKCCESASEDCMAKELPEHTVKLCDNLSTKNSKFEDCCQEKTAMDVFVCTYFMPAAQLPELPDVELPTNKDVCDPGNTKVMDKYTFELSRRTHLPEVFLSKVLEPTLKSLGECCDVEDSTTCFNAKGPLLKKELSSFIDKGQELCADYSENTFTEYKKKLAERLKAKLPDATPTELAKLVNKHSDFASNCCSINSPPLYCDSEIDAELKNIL
Description: Binding of 1α,25(OH)2D3 analogues to hDBP was performed at 4° C. […] Phase separation was then obtained by the addition of 0.5 ml of cold dextran-coated charcoal.

[2] = target: T2, vitamin D receptor (VDR) (Sus scrofa, UniProt A3RGC1); assay: Affinity for vitamin D receptor: competition with [3H]1α,25(OH)2D3; assay type: binding; details: pig intestinal mucosa supernatant, 4° C. 20 hours; 1α,25(OH)2D3 = 100%
T2 construct: high speed supernatant from intestinal mucosa homogenates obtained from normal pigs; from tissue; host or cells: pig intestinal mucosa (high speed supernatant of homogenate)
T2 sequence (A3RGC1 1-427): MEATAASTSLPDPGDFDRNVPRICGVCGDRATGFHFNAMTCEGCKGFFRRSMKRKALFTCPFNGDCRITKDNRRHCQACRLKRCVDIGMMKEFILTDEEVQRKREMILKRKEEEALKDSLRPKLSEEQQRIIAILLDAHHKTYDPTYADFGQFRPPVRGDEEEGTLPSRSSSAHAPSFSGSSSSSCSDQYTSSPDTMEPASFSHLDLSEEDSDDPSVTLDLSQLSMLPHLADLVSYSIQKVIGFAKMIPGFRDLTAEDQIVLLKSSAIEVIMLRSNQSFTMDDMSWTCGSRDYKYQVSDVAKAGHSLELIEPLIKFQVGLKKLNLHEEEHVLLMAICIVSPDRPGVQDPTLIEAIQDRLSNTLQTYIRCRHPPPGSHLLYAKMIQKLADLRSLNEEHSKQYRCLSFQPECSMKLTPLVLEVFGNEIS
Description: The methods used herein to evaluate the binding properties of vitamin D analogues are state of the art techniques used for steroid hormone (including vitamin D) binding assays. […] Incubation was performed at 4° C. for 20 hours and phase separation was obtained by addition of dextran-coated charcoal.

[3] = system: OVX or SHAM C3H female mice; assay: Restoration of bone loss in ovariectomized mice, oral treatment started 3 weeks after surgery; assay type: in vivo; details: 8 weeks
Description: 12-week-old C3H female mice were subjected to bilateral ovariectomy (OVX) or sham surgery SHAM (time point −3). The OVX and SHAM animals were treated with the vitamin D analogue MV2 (1 μg/kg three times per week) or vehicle (arachis oil) by oral gavage. Dosing was started 3 weeks after surgery (time point 0) and was continued for 8 weeks (time point 8). The number of mice per group is 8 to 10.
Before the surgery and 3 weeks after ovariectomy in vivo, measurements were performed in order to determine bone mineral density (BMD), bone mineral content (BMC) of total body and spine by DEXA. Before the surgery and 3 weeks after ovariectomy, serum was collected to measure calcium levels by a standard […] method (Synchron CX4, Beckman Instruments, USA). The animals were weighted regularly during the experimental period to monitor their overall health and well being. After 4 weeks treatment, serum was again collected and biochemical parameters were determined. At the end of the experiment (8 weeks of treatment) bone mineral density (BMD) and bone mineral content (BMC) of total body and spine were measured by DEXA and serum was collected to determine serum calcium levels. […] Tibiae were used for histomorphometric analysis, and femurs for measurement of cortical and trabecular volumetric density and geometry by peripheral quantitative computed tomography (PQCT) ex vivo. […]

[4] = system: SHAM or OVX operated C3H mice; assay: Ovariectomized mice model for primary prevention of osteoporosis; assay type: in vivo; details: 0.5 μg/kg i.p.
Description: Twelve-week-old C3H mice were randomly divided into four groups (9-13 mice/group). Two groups of mice were SHAM-operated (SHAM) and two groups were ovariectomized (OVX). Three days after the surgical procedure the SHAM and OVX mice were injected with MV2 intraperitoneally at 0.5 μg/kg/2days (4 times per week) or vehicle (arachis oil). The mice were treated for 8 weeks. At the beginning (before the first injection) of the experiment, bone mineral density (BMD) and bone mineral content (BMC) were determined by dual-energy X-ray absorptiometry (hereinafter referred as DEXA) and serum calcium levels were determined by a microcolorimetric assay. The animals were weighted regularly during the experimental period.
At the end of the experiment serum calcium levels, BMD and BMC were again measured. Trabecular and cortical bone mineral content (BMC) and bone mineral density (BMD) and the geometry of the femur were assessed by a Stratex XCT densitometer (pQCT). Femur calcium content was measured in HCl-dissolved bone ash (obtained by heating for 24 hours in an oven at 100° C.), using a microcolorimetric assay. […] Statistical analysis was performed with the software program NCSS (NCSS, Kaysville, Utah, USA). ANOVA analyses followed bye Fisher's least significant (LSD)-multiple comparison tests were carried out to detect significant differences, p<0.05 was accepted as significant.

[5] = DEXA, OVX mice, 8 weeks, increase (↑)
[6] = DEXA, SHAM mice, 8 weeks, increase (↑)
[7] = calculated from pQCT femur, OVX mice, 8 weeks, increase (↑)
[8] = calculated from pQCT femur, SHAM mice, 8 weeks, increase (↑), * not significant
[9] = pQCT femur, OVX mice, 8 weeks, increase (↑)
[10] = pQCT femur, SHAM mice, 8 weeks, increase (↑)

C[C@H](CC#CC(O)(C(F)(F)F)C(F)(F)F)[C@@]1(C)CC[C@@H](/C=C/C=C2C[C@@H](O)C[C@H](O)C2)C1(C)C [MV2, (1R,3R)-5-((E)-3-((1S,3R)-3-((1R)-6,6,6-trifluoro-5-hydroxy-1-methyl-5-trifluoromethyl-3-hexynyl)-2,2,3-trimethylcyclopentyl)-2-propenylidene)cyclohexane-1,3-diol]
DBP (relative affinity) [1]: 7% | VDR (relative affinity) [2]: 50% | hypercalcemic effects (serum calcium) ([3]; 1 pg/kg three times per week (so in the source)): no hypercalcemic effects | body weight during treatment ([3]; 1 μg/kg p.o. three times per week): no animals lost weight | body weight during treatment ([4]; 8 weeks): no animals lost weight | serum calcium levels (no hypercalcemic effects) ([4]; end of 8 weeks): below 11.5 mg/dl | BMC total body, OVX + analogue vs. OVX + vehicle (= 100%) in % [4, 5]: 19% and 19 ↑ % | BMD spine, OVX + analogue vs. OVX + vehicle (= 100%) in % [4, 5]: 22% and 22 ↑ % | BMD total body, OVX + analogue vs. OVX + vehicle (= 100%) in % [4, 5]: 9% and 9 ↑ % | BMC total body, SHAM + analogue vs. SHAM + vehicle (= 100%) in % [4, 6]: 16% and 16 ↑ % | BMD spine, SHAM + analogue vs. SHAM + vehicle (= 100%) in % [4, 6]: 11% and 11 ↑ % | BMD total body, SHAM + analogue vs. SHAM + vehicle (= 100%) in % [4, 6]: 9% and 9 ↑ % | increase in calcium content in femur, OVX treated animals compared to control animals ([4]; OVX mice, 8 weeks): 14% | increase in calcium content in femur, SHAM treated animals compared to control animals ([4]; SHAM mice, 8 weeks): 12% | Moment of inertia, OVX analogue versus OVX vehicle (=100%) in % [4, 7]: 12 ↑ % | Moment of resistance, OVX analogue versus OVX vehicle (=100%) in % [4, 7]: 8 ↑ % | Moment of inertia, SHAM analogue versus SHAM vehicle (=100%) in % [4, 8]: 6 ↑* % | Moment of resistance, SHAM analogue versus SHAM vehicle (=100%) in % [4, 8]: 3 ↑* % | Endosteal circumference, OVX analogue versus OVX vehicle (=100%) in % ([4]; pQCT femur, OVX mice, 8 weeks, decrease (↓), * not significant): 2 ↓* % | Cortical BMC, OVX analogue versus OVX vehicle (=100%) in % [4, 9]: 11 ↑ % | Cortical BMD, OVX analogue versus OVX vehicle (=100%) in % [4, 9]: 2 ↑ % | Cortical area, OVX analogue versus OVX vehicle (=100%) in % [4, 9]: 9 ↑ % | Cortical thickness, OVX analogue versus OVX vehicle (=100%) in % [4, 9]: 8 ↑ % | Periosteal circumference, OVX analogue versus OVX vehicle (=100%) in % [4, 9]: 3% and 3 ↑ % | Trabecular BMC, OVX analogue versus OVX vehicle (=100%) in % [4, 9]: 69 ↑ % | Trabecular BMD, OVX analogue versus OVX vehicle (=100%) in % [4, 9]: 57 ↑ % | Trabecular area, OVX analogue versus OVX vehicle (=100%) in % [4, 9]: 8 ↑ % | Endosteal circumference, SHAM analogue versus SHAM vehicle (=100%) in % ([4]; pQCT femur, SHAM mice, 8 weeks, decrease (↓), * not significant): 4 ↓* % | Cortical BMC, SHAM analogue versus SHAM vehicle (=100%) in % [4, 10]: 7 ↑ % | Cortical BMD, SHAM analogue versus SHAM vehicle (=100%) in % [4, 10]: 1 ↑ % | Cortical area, SHAM analogue versus SHAM vehicle (=100%) in % [4, 10]: 6 ↑ % | Cortical thickness, SHAM analogue versus SHAM vehicle (=100%) in % [4, 10]: 6 ↑ % | Trabecular BMC, SHAM analogue versus SHAM vehicle (=100%) in % [4, 10]: 83 ↑ % | Trabecular BMD, SHAM analogue versus SHAM vehicle (=100%) in % [4, 10]: 74 ↑ % | Trabecular area, SHAM analogue versus SHAM vehicle (=100%) in % [4, 10]: 7 ↑ % | Periosteal circumference, SHAM analogue versus SHAM vehicle (=100%) in % ([4]; pQCT femur, SHAM mice, 8 weeks, increase (↑), * not significant): 1 ↑* %
